The numbers were not newly measured in US8535717B2, “Pharmaceutical composition” (Sun Pharma Advanced Research Company Limited, priority 2005, dated 2013), which cites them from elsewhere.

With `CC[C@@H](C(N)=O)N1CCCC1=O` [levetiracetam], the solubility (cannot be decreased by altering pH of the microenvironment) is on record as 104 g/100 ml. Where the note is “water”, the solubility in water was 104 g in 100 ml.
